Reference: PubChem BioAssay AID489027 (Sanford-Burnham Center for Chemical Genomics, 2010)
Calls of active or inactive are those of the source. The rule behind the calls is not given here.

What follows are molecules tested against UPR counterscreen luciferase reporter, luminescence (assay: luciferase reporter activation, UPR counterscreen line – cell-based, luminescence, counter-screen for adaptive UPR activator project, dose response (AID 489027)).

Structure (SMILES) | EC50
CCCc1nc2c(c(=O)c3ccccc3n2C)c(=O)n1C1CCCCCC1 | > 80 µM (inactive)
COc1ccc2cc3c(N)nn(C(=O)C4CCC(C(C)(C)C)CC4)c3nc2c1 (centres undefined) | > 80 µM (inactive)
Cc1cccn2c(=O)c3cc(C(=O)NC4CCCCCC4)sc3nc12 | > 80 µM (inactive)
COc1ccc(NC(=O)C(=O)N/N=C\c2ccc(CNC(=O)C(=O)Nc3ccc(C)c(C)c3)o2)c(OC)c1 | 4.19 µM
COc1cc(CNCCO)cc(Cl)c1OCc1ccc(Cl)cc1Cl | > 80 µM (inactive)
C/C(=N\Nc1ncnc2sc(C)c(C)c12)c1ccccn1 | 2.6 µM
CCc1ccccc1NC(=O)C(CC)Sc1nc2cc3c(cc2c(=O)n1Cc1ccco1)OCO3 (centres undefined) | 11.6 µM
O=C(/C=C\c1cn(-c2ccccc2)nc1-c1ccccc1)Nc1nccs1 | > 80 µM (inactive)
c1ccc(N=Nc2ccc3cccccc2-3)cc1 | 11 µM
CC(C)(C)c1cc(-c2nc(N)nc(N)n2)c(O)c(C(C)(C)C)c1 | inactive
c1cc(SC2CCCCC2)cc(-c2nc3cnccn3c2NC2CCCCC2)c1 | 12.6 µM
CC(C)N(C(=O)[C@H]1C[C@H](CC(=O)NCC23CC4CC(CC(C4)C2)C3)C(=O)N2CCc3c([nH]c4ccc(Cl)cc34)[C@]12C)C(C)C | inactive
C/C(CCC12CC3CC(CC(C3)C1)C2)=N\NC(N)=S | inactive
COc1cccc(/C=N/Nc2ccc([N+](=O)[O-])cn2)c1O | > 80 µM (inactive)
CCN=C1S/C(=C\c2cn(CC(=O)NCc3ccco3)c3ccccc23)C(=O)N1CC | > 80 µM (inactive)
CC1(C)CC(=O)C(C=Nc2ccc(C(=O)c3ccccc3)cc2N=CC2=C(O)CC(C)(C)CC2=O)=C(O)C1 | 9.78 µM
CCn1cc(C(=O)NC(=S)Nc2sc3c(c2C(=O)OC)CCCCCC3)cn1 | inactive
C/C(Cl)=C\Cn1c(O)c(N=NC(N)=S)c2cc(Br)ccc21 | 17.3 µM
CC1(C)C[C@H](O)[C@]2(CO)[C@H](O)C[C@]3(C)C(=CCC4[C@@]5(C)CC[C@H](O)C(C)(C)C5CC[C@]43C)[C@@H]2C1 (some centres undefined) | > 80 µM (inactive)
CCc1nc(C)cn1S(=O)(=O)c1cc([N+](=O)[O-])ccc1Cl | > 80 µM (inactive)

Structure (SMILES) | EC50
O=[N+]([O-])c1ccc(N/N=C/c2cccc(O)c2O)c(S(=O)(=O)N2CCOCC2)c1 | 7.48 µM
CCC(C)(C)C1CCC2(CC1)NC(=O)N(CC(=O)N1CCN(S(=O)(=O)c3cc(C)ccc3C)CC1)C2=O (centres undefined) | 19.3 µM
Cc1cnc(NC(=O)c2cc(S(=O)(=O)N(C)C)ccc2N2CCCC2)s1 | 4.67 µM
Oc1cc(-c2ccc(N3CCCCC3)nc2)cc2cccnc12 | > 80 µM (inactive)
C#CCOCCOCCOCCNc1nc(N2CCN(C(=O)CCCCCCCCCCNC(=O)[C@H](CCCCN)n3cc(C[C@@H](C)CC)nn3)CC2)nc(N2CCN(C(=O)CCCCCCCCCCNC(=O)[C@H](CCCN=C(N)N)n3cc(C[C@@H](C)CC)nn3)CC2)n1 | > 80 µM (inactive)
NC(=S)N/N=C/c1ccc(C23CC4CC(CC(C4)C2)C3)cc1 | 13.8 µM
OC(CNCC1CCCO1)Cn1c2ccc(Cl)cc2c2cc(Cl)ccc21 (centres undefined) | > 80 µM (inactive)
COc1cc(OC)cc(C(=O)Nc2ccc3nc4n(c(=O)c3c2)CCCCC4)c1 | > 80 µM (inactive)
CC(C)(C)c1csc(NC(=O)c2ccc(Cl)s2)n1 | > 80 µM (inactive)
COc1ccc2c(c1)[nH]c1c(=O)n(/N=C/C3C(C)C=C(C)CC3C)c(=O)[nH]c12 (centres undefined) | inactive
O=C(Nc1ccc(Oc2ccc(NC(=O)Nc3ccccc3Cl)cc2)cc1)Nc1ccccc1Cl | > 80 µM (inactive)
Brc1cc(Br)c2ncnc(N3CCCCC3)c2c1 | inactive
C=CCN=C1S/C(=C/c2cccc([N+](=O)[O-])c2)C(=O)N1CC=C | inactive
COc1cccc(-c2c(-c3cc(OC)cc(OC)c3)n(C)c3ccc(-c4cnc(N5CCOCC5)nc4)cc23)c1 | inactive
Cc1cc(NC(=O)CSc2nc3sc(C)c(C)c3c(=O)n2C2CCCC2)no1 | > 80 µM (inactive)
CC(C)c1ccc(C2C3=C(COC3=O)Nc3cc4c(cc32)OCO4)cc1 (centres undefined) | inactive
CC1=CC(C)(C)N2C(=O)C(=O)c3cc(OC(=O)c4ccco4)cc1c32 | inactive
COc1cc(SC#N)ccc1N=Cc1c(C)[nH]n(-c2ccc(C)c(C)c2)c1=O | 17.4 µM
O=CC1=C(c2ccccc2)Oc2ccccc2O1 | 10.3 µM

Continued, values first:

EC50 | Structure (SMILES)
> 80 µM (inactive) | Cc1ccc2nc(Nc3nc(-c4ccccc4)cc(=O)[nH]3)nc(C)c2c1
> 80 µM (inactive) | Cc1cc(NC(=O)CSc2nc3cc(Cl)ccc3c(=O)n2Cc2ccco2)no1
> 80 µM (inactive) | Cn1c(-c2ccccc2)c(/C=N/NC(=O)c2ccc(O)cc2)c2ccccc21
inactive | Cc1ccc(CN2C(=O)C(=O)c3cc(C)ccc32)cc1
11.6 µM | Cc1ccc(-n2nc3cc(C)c(NC(=S)NC(=O)/C=C/c4ccco4)cc3n2)cc1
> 80 µM (inactive) | Cc1cccc(NC(=O)CSc2nc(C)c(CC(=O)c3ccc(Br)cc3)c(C)c2C#N)c1C
> 80 µM (inactive) | CCCCCCCCCCOC(=O)Cn1c(COc2ccc(C)cc2)[n+](C)c2ccccc21
> 80 µM (inactive) | COc1ccc(-c2ccc3c(c2)S(=O)(=O)c2cccc(C(=O)NCCOc4ccccc4Cl)c2C3=O)cc1OC
inactive | N#Cc1ccccc1NC(=O)COc1c(Br)cc(Br)c2cccnc12
7.87 µM | N=c1n(CC(=O)c2ccc([N+](=O)[O-])cc2)c2ccccc2n1Cc1ccc(Cl)cc1
8.05 µM | CC(C)(C)C(=O)NC(=S)NNC(=O)c1ccc(-c2ccccc2)cc1
> 80 µM (inactive) | CCOc1cc(/C=N/N=C(\N)c2nonc2N)cc(Br)c1OCc1cccc2ccccc12
3.71 µM | CCOC(=O)/C(=C\c1ccccc1)C(=O)c1cc(C(C)=O)c(Nc2ccccc2)s1
10.3 µM | COc1ccc(N=Cc2c(O)c3ccccc3oc2=O)cc1
> 80 µM (inactive) | Cc1nc(Nc2nc(-c3ccccc3)cc(=O)[nH]2)nc2ccccc12
17.4 µM | Brc1ccc(-c2ccc(/C=N/Nc3nncc(-c4ccccc4)n3)o2)cc1
inactive | COc1ccc2c(c1)NC(c1cc(Cl)cc(Cl)c1O)c1cccn1-2 (centres undefined)
18.1 µM | COc1ccccc1CCNC(=O)C1CCN(c2nnc(C)c3c(C)n(-c4ccc(C)cc4)nc23)CC1
8.11 µM | CCOc1ccccc1N=Cc1c(O)c2ccccc2oc1=O
> 80 µM (inactive) | CCOc1cc(CNC(C)(C)CO)cc(Br)c1OCc1ccc(Cl)cc1Cl
11.8 µM | CCOc1ccc2nc(NC3=NC(c4ccc(OC)cc4)CC(=O)N3)nc(C)c2c1 (centres undefined)
inactive | O=Cc1cc2ccccc2nc1SCc1ccc(Cl)c(Cl)c1
14.3 µM | CCOC(=O)c1nnc(-c2ccccc2)nc1Sc1ccccc1Cl
> 80 µM (inactive) | Cc1ccc(-n2nc3c(N4CCC(C(=O)NCCc5cccs5)CC4)nnc(C)c3c2C)cc1
inactive | Cc1nn(Cc2ccccc2)c(C)c1NC(=O)CSc1nc(C2CC2)nc2c1cnn2-c1ccccc1
3.69 µM | O=C(COc1ccc(/C=N/NC(=O)c2cc3ccccc3o2)cc1Br)Nc1ccccc1
inactive | CCN(CC)c1ccc(-c2nn3c(-c4ccccc4OC)nnc3s2)cc1
> 80 µM (inactive) | COc1ccc(N2CCN(Cc3nc(N)nc(Nc4ccc(C)c(Cl)c4)n3)CC2)cc1

EC50 | Structure (SMILES)
> 80 µM (inactive) | Cc1ccc2c(=O)[nH]c(Nc3nc(C)cc(-c4ccccc4)n3)nc2c1
inactive | O=Cc1cc2ccccc2nc1SCc1ccc(Cl)cc1
> 80 µM (inactive) | COc1cc(/C=N/Nc2nc(Nc3ccc(C)cc3)nc(-n3nc(C)cc3C)n2)cc(OC)c1OC
13.1 µM | CCOC(=O)c1nnc(-c2ccc(C)cc2)nc1Oc1ccc(Cl)cc1Cl
> 80 µM (inactive) | COc1ccc(C(=O)Nc2cccc(/C=C/c3nc4ccccc4c(=O)[nH]3)c2)cc1
> 80 µM (inactive) | CCCNC(=O)c1ccc2c(=O)c(O)c(-c3ccc(OC)cc3)[nH]c2c1
inactive | COc1ccc(-c2cc(C(F)F)n3ncc(C(=O)N4CCc5ccccc5C4)c3n2)cc1
> 80 µM (inactive) | COc1ccc(Br)cc1-c1nc2c(c(=O)[nH]c(=O)n2Cc2ccccc2)n1C
11.4 µM | CCCCN(CC)S(=O)(=O)c1ccc(C(=O)N(CCCN(C)C)c2nc3cc(C)cc(C)c3s2)cc1
inactive | Cn1nc(C(F)(F)F)c(/C=N/OC(=O)c2ccccc2)c1SCc1ccccc1Cl
> 80 µM (inactive) | COc1ccc(CCn2c(=S)[nH]c3cc(C(=O)NCc4ccco4)ccc3c2=O)cc1OC
inactive | CCOC(=O)c1cc(-c2ccccc2)sc1NC(=O)c1ccc(OC)cc1
15.7 µM | COc1cccc(C(=O)Oc2cc3c4c(c2)C(C)=CC(C)(C)N4C(=O)C3=O)c1
> 80 µM (inactive) | CCOc1ccc(NC(=S)NC(=O)/C=C/c2ccc(OC)c(OC)c2)c([N+](=O)[O-])c1
> 80 µM (inactive) | COc1cc(OC)c2c(-c3cccc(-c4ccc(CO)cc4)c3)cc(=O)oc2c1
6.64 µM | Cc1ccc(NC(=O)c2ccc(N/N=C/c3cccc(O)c3)c([N+](=O)[O-])c2)cc1
> 80 µM (inactive) | Cc1ccc(-c2cc(C(F)F)n3ncc(C(=O)N4CCc5ccccc54)c3n2)cc1
14.8 µM | CCOC(=O)c1nnc(-c2ccc(C)cc2)nc1Sc1ccccc1Cl
inactive | COc1ccc(C(=O)O/N=C/c2c(C(F)(F)F)nn(C)c2SCc2ccccc2Cl)cc1
> 80 µM (inactive) | CCOC(=O)c1nnc(-c2ccc(C)cc2)nc1Sc1cccc(Cl)c1
11.5 µM | CCc1cc2c(=O)c(-c3cnn(-c4ccccc4)c3)c(C)oc2cc1OCC(=O)Nc1cccc(C)c1
inactive | NS(=O)(=O)c1ccc(NC(=O)COC(=O)c2cn(-c3ccccc3)nc2-c2ccc(F)cc2)cc1
> 80 µM (inactive) | Cc1ccc(-c2nc(N/N=C/c3cccc([N+](=O)[O-])c3)c3ccccc3n2)cc1
inactive | COc1ccc(-c2csc(NC(=S)NC(=O)/C=C/c3ccccc3)n2)cc1Br
> 80 µM (inactive) | C#CCn1c(=NC(=O)c2ccc(Br)s2)sc2cccc(OC)c21
17.7 µM | CCOc1ccc(C(=O)Nc2cc(-c3nc4ccccc4[nH]3)ccc2Cl)cc1[N+](=O)[O-]
inactive | Cn1c(=O)c2c(SCC(=O)Nc3ccccc3F)nc(-c3ccccc3F)nc2n(C)c1=O
